For series [1], the system named is A549. As to the kind of experiment: Induction of mitochondria mediated apoptosis in human A549 cells assessed as reduction in HK2 level at […] incubated for 48 hrs by immunofluorescence confocal microscopic analysis. It counts as functional, cell-based.
Series [2] deals with MDA-MB-231. As to the kind of experiment: Antiproliferative activity against human MDA-MB-231 cells assessed as inhibition of cell growth incubated for 48 hrs by MTT assay. It counts as functional, cell-based. As to conditions: MDA-MB-231, 48 h.
Series [3] has as its system A549. As to the kind of experiment: Inhibition of glycolysis in human A549 cells assessed as downregulation of HK2 expression in cytosol fraction at 1 to 10 uM incubated for 48 hrs by Western blotting analysis. The following applies: dose 1-10 µM. It counts as functional, cell-based. Background: A western blot detects proteins with antibodies after separation by electrophoresis.

Series [4] relates to A549. As to the kind of experiment: Inhibition of glycolysis in human A549 cells assessed as downregulation of HK2 expression in mitochondrial fraction at 1 to 10 uM incubated for 48 hrs by Western blotting analysis. It counts as functional, cell-based. The following applies: dose 1-10 µM.
Series [5] has as its system A549. In words: Induction of apoptosis in human A549 cells assessed as late apoptotic cells at 1 uM incubated for 48 hrs by Annexin V-FITC/PI staining based flow cytometry. It counts as functional. (In general: Flow cytometry measures light scatter and fluorescence of single cells or particles in a stream.)
For series [6], the system named is A549. In words: Induction of apoptosis in human A549 cells assessed as late apoptotic cells at 10 uM incubated for 48 hrs by Annexin V-FITC/PI staining based flow cytometry. It counts as functional.
The test system of series [7] is A549. In words: Inhibition of glycolysis in human A549 cells assessed as reduction in glucose uptake incubated for 48 hrs by Amplex red dye based spectrophotometry. It counts as functional, cell-based.
The subject of series [8] is Mitochondrial membrane. As to the kind of experiment: Induction of mitochondrial membrane potential loss in human A549 cells at 1 to 10 uM incubated for 48 hrs by JC-1 dye based fluorescence microscopic analysis. It counts as cell membranes. As to conditions: dose 1-10 µM.
Series [9] relates to A549. In words: Inhibition of glycolysis in human A549 cells assessed as downregulation of GLUT1 expression in cytosol fraction at 1 to 10 uM incubated for 48 hrs by Western blotting analysis. It counts as functional, cell-based. The following applies: dose 1-10 µM.
Series [10] deals with A549. In words: Induction of apoptosis in human A549 cells assessed as upregulation of Cyt C expression in cytosol fraction at 1 to 10 uM incubated for 48 hrs by Western blotting analysis. The following applies: dose 1-10 µM. It counts as functional, cell-based.
The test system of series [11] is A549. As to the kind of experiment: Induction of apoptosis in human A549 cells assessed as early apoptotic cells at 1 uM incubated for 48 hrs by Annexin V-FITC/PI staining based flow cytometry. It counts as functional.
Series [12] has as its system BEAS-2B. As to the kind of experiment: Antiproliferative activity against human BEAS-2B cells assessed as inhibition of cell growth incubated for 48 hrs by MTT assay. It counts as toxicity, cell-based. (Tetrazolium assays rely on reduction of a dye to a coloured formazan, in cell work by metabolically active cells.)
For series [13], the system named is A549. As to the kind of experiment: Inhibition of glycolysis in human A549 cells assessed as decrease in HK2 activity incubated for 48 hrs by spectrophotometric assay. It counts as functional, cell-based. The following applies: A549, 48 h.
The subject of series [14] is A549. As to the kind of experiment: Induction of mitochondria mediated apoptosis in human A549 cells assessed as reduction in HK2 level at 1 to 10 uM incubated for 48 hrs by immunofluorescence confocal microscopic analysis. As to conditions: dose 1-10 µM. It counts as functional, cell-based.
Series [15] relates to A549. In words: Inhibition of glycolysis in human A549 cells assessed as reduction in lactate production at 10 uM incubated for 48 hrs by trypan blue staining based spectrophotometry. It counts as functional.
The subject of series [16] is A549. In words: Antiproliferative activity against human A549 cells assessed as inhibition of cell growth incubated for 48 hrs by MTT assay. It counts as functional, cell-based. The following applies: A549, 48 h.
Series [17] has as its system A549. As to the kind of experiment: Inhibition of glycolysis in human A549 cells assessed as downregulation of GLUT1 expression at 1 to 10 uM incubated for 48 hrs by Western blotting analysis. It counts as functional, cell-based. The following applies: dose 1-10 µM.
Series [18] deals with A549. As to the kind of experiment: Induction of apoptosis in human A549 cells assessed as downregulation of AKT phosphorylation at 1 to 10 uM incubated for 48 hrs by Western blotting analysis. It counts as functional, cell-based. As to conditions: dose 1-10 µM.
The subject of series [19] is A549. In words: Induction of apoptosis in human A549 cells assessed as downregulation of AKT expression at 1 to 10 uM incubated for 48 hrs by Western blotting analysis. As to conditions: dose 1-10 µM. It counts as functional, cell-based.
Series [20] relates to A549. In words: Induction of apoptosis in human A549 cells assessed as late apoptotic cells at 5 uM incubated for 48 hrs by Annexin V-FITC/PI staining based flow cytometry. It counts as functional.
The subject of series [21] is A549. In words: Induction of apoptosis in human A549 cells assessed as early apoptotic cells at 10 uM incubated for 48 hrs by Annexin V-FITC/PI staining based flow cytometry. It counts as functional.
Series [22] deals with A549. In words: Induction of apoptosis in human A549 cells assessed as early apoptotic cells at 5 uM incubated for 48 hrs by Annexin V-FITC/PI staining based flow cytometry. It counts as functional.
Series [23] relates to A549. In words: Inhibition of glycolysis in human A549 cells assessed as reduction in lactate production at 5 uM incubated for 48 hrs by trypan blue staining based spectrophotometry. It counts as functional.
Series [24] has as its system A549. In words: Induction of apoptosis in human A549 cells assessed as downregulation of Cyt C expression in mitochondrial fraction at 1 to 10 uM incubated for 48 hrs by Western blotting analysis. It counts as functional, cell-based. As to conditions: dose 1-10 µM.
In series [25] the test system is A549. In words: Induction of apoptosis in human A549 cells assessed as downregulation of Bcl-2 expression at 1 to 10 uM incubated for 48 hrs by Western blotting analysis. It counts as functional, cell-based. As to conditions: dose 1-10 µM.
The subject of series [26] is A549. In words: Inhibition of glycolysis in human A549 cells assessed as reduction in lactate production at 1 uM incubated for 48 hrs by trypan blue staining based spectrophotometry. It counts as functional.
The subject of series [27] is A549. As to the kind of experiment: Inhibition of glycolysis in human A549 cells assessed as downregulation of HK2 expression incubated for 48 hrs by Western blotting analysis. It counts as functional, cell-based.
In series [28] the test system is A549. As to the kind of experiment: Induction of apoptosis in human A549 cells assessed as increase in ratio of Bax/Bcl-2 at 1 to 10 uM incubated for 48 hrs by Western blotting analysis. It counts as functional, cell-based. The following applies: dose 1-10 µM.
For series [29], the system named is A549. As to the kind of experiment: Induction of apoptosis in human A549 cells assessed as upregulation of Bax expression at 1 to 10 uM incubated for 48 hrs by Western blotting analysis. It counts as functional, cell-based. As to conditions: dose 1-10 µM.
Series [30] deals with A549. In words: Antiproliferative activity against human A549 cells assessed as reduction in cell viability incubated for 48 hrs by MTT assay. It counts as functional, cell-based.

The structures appear in SMILES notation. Activity calls are given as the source filed them. No cut-off for these calls is given here.

The term IC50 denotes the concentration that gives 50% inhibition.

As for `OC[C@H]1OC(O)C[C@@H](O)[C@@H]1O` (some centres not stated), the result in [1] was Active.

`COc1cc(CCc2ccccc2Cl)cc(OC)c1O`: the IC50 was 19.2 µM in [2], roughly 10 µM in series [13] and 2.72 µM in series [16]. For the same compound, the inhibition entry in series [3] and in series [9] was “inactive” each time. The inhibition entry in series [4], in series [7] and in [27] was “Dose-dependent-effect” throughout. The Activity in series [5] is reported as 21.6%; in series [6] it was 34.5%; in series [11], 16.9%; in series [12], “Toxic”; in series [15] it was 3.91 mmol/L; in series [20], 24.7%. Further, the Activity in [21] was 33.53%; in [22] it was 30.9%; in series [23], 4.38 mmol/L; in [26], 4.54 mmol/L; in series [30], “Dose-dependent-effect”. Also, the result in series [8], in series [10], in series [14], in series [18], in [24] and in series [25] was Active. Besides, the result in series [28] and in series [29] was Active. Also, the inhibition entry in series [17] was “Active”. The result in [19] was inactive.

As for `CC(C)=CCC[C@]1(C)C=Cc2c(O)c3c(c(CC=C(C)C)c2O1)O[C@]12C(=C[C@@H]4C[C@H]1C(C)(C)O[C@@]2(C/C=C(/C)C(=O)O)C4=O)C3=O` [GAMBOGIC ACID], the Activity in [6] is on record as 30.2%; in [21], 30.67%.

(Values after ChEMBL document CHEMBL6087391, “Novel bibenzyl compound 8Ae induces apoptosis and inhibits glycolysis by detaching hexokinase 2 from mitochondria in A549 cells” (Bioorg Med Chem, 2024).)
